These results are taken from patent US20230165922A1, “APPLICATION OF RADIX GENTIANAE MACROPHYLLAE AND MONOMER COMPOUND THEREOF IN KILLING MITES” (SMILEBIOTECK ZHUHAI LIMITED, priority 2020, published 2023).

Assay [1] deals with D.folliculorum. The assay can be described thus: Preliminary in-vitro screening of monomer compounds for effect on survival time of Demodex mites. The note with it: 20° C., humidity 96%; for Survival time (hours) of D.folliculorum in vitro: 35 µL monomer compound solution in 10% DMSO, observed every 2 hours, mean ± SD. The source says: The names and molecular formulas of the monomer compounds are shown in the following table: The monomer compounds were purchased from Chengdu Herbpurify Co., Ltd., and were standard references.
The powders of the monomer compounds shown in Table 2 were separately dissolved in dimethyl sulfoxide (DMSO), and then diluted with sterilized double-distilled water to make the final concentration of DMSO 10%, which could not shorten the survival time of Demodex mites as per a controlled study. The negative control group received DMSO mixed with sterilized water at a final concentration of 10%.
As in Example 1, 35 µL of each solution was added to a glass slide, and the survival of the mites was observed under an optical microscope every 2 hours. During the experiment, the Demodex mites were observed by two skilled operators separately for the activities (bodies, limbs and the like) through the microscope to determine whether they were dead or not. If the two operators gave different results, the survival status was determined independently by a third skilled operator. The in-vitro culture was conducted in a climatic chamber at a temperature of 20° C. and a humidity of 96%. During the observation, the glass slides were transported in a wet box to ensure the high humidity.
In this experiment, statistical analysis was conducted using SPSS22.0 statistical software, normality test was conducted using Shapiro-Wilk test, and homogeneity of variance test was conducted using Bartlett’s test.
Effects of monomer compounds of traditional Chinese medicine on survival time of D.folliculorum The in-vitro culture of the Demodex mites was conducted in an environment at a humidity of 96% and a temperature of 20° C. The survival of the Demodex mites was observed dynamically and the survival time was recorded.

The test system of assay [2] is D.folliculorum. In words: In-vitro culture of Demodex mites with traditional Chinese medicine decoctions (survival time). As to conditions: 20° C., humidity 96%. The method, then: The ethical guidelines of “The Declaration of Helsinki” and “Measures for the Ethical Review of Biomedical Research Involving Humans” were strictly followed in this study. Demodex mites from patients diagnosed with ocular Demodex infestation were collected in this study. Subjects who met the inclusion criteria were enrolled after giving an informed conversation and signing an informed consent.
The detection of Demodex mites was performed according to the conventional method of eyelash microscopy (12,20). 3 eyelashes were collected from each eyelid, with a total of 12 eyelashes. […] Demodex mites in all periods were counted and classified according to morphology (specific standard: D.brevis with a head-to-body ratio of 1:1, and D.folliculorum with a head-to-body ratio of 1:3 to 1:4). […]
On the basis of the above detection of Demodex mites, 35 µL of the solutions was separately added to the slides, and the survival of the mites was observed every 2 hours. […] If the two operators gave different results, the survival status was determined independently by a third skilled operator. […]
60 g of dried ready-to-use forms was weighed using an electronic balance, and soaked in water with an amount of 10 times (600 mL) in a marmite overnight. […]

SMILES strings stand for the structures.

In the case of `C=C[C@@H]1C2=CCOC(=O)C2=CO[C@H]1O[C@@H]1O[C@H](CO)[C@@H](O)[C@H](O)[C@H]1O` [Gentiopicroside], the “Survival time (hours) of D.folliculorum in vitro” value (from here on “Survival time (hours)”) in the assay with D.folliculorum [1] and in the assay with D.folliculorum [1] (listed as gentiopicroside) was 37.31 ± 36.06 h throughout. In addition, the “Effect on in-vitro survival time of Demodex mites versus 10% DMSO negative control” value with D.folliculorum [1] (compared with 10% DMSO solution) is given as “significantly shorter”.

Regarding `C=C[C@H]1[C@H](O[C@@H]2O[C@H](CO)[C@@H](O)[C@H](O)[C@H]2O)OC=C2C(=O)OCC[C@H]21` [Sweroside], the “Survival time (hours)” value in the assay with D.folliculorum [1] came out at 60.79 ± 25.98 h. The same measure, in the same setting: with `C=C[C@H]1[C@H](O[C@@H]2O[C@H](CO)[C@@H](O)[C@H](O)[C@H]2O)OC=C2C(=O)OCC[C@]21O` [Swertiamarin] the figure was 59.68 ± 10.97 h; with `C[C@@H]1[C@H]2[C@H](O[C@@H]3O[C@H](CO)[C@@H](O)[C@H](O)[C@H]3O)OC=C(C(=O)O)[C@H]2C[C@@H]1O` [Loganic acid], 61.56 ± 22.84 h; with `COc1cc2ccc(=O)oc2cc1O` [Scopoletin], 54.67 ± 25.66 h.

On to `C=C(C)[C@@H]1CC[C@]2(C)[C@H](CC=C3[C@@H]4[C@@H](C)[C@H](C)CC[C@]4(C)CC[C@]32C)[C@@]1(C)CCC(=O)O` [Roburic acid], for which the “Survival time (hours)” value in the assay on D.folliculorum [1] came out at 63.41 ± 12.20 h.

For `COC(=O)c1c2c(c3ccccc3c1O)OC(C)(C)C=C2` [Mollugin], in the assay with D.folliculorum [1], the “Survival time (hours)” value stood at 61.10 ± 25.12 h. With `CC1=CCC(O)(C(C)C)CC1` (centres unmarked) [T40, terpinen-4-ol], in the assay with D.folliculorum [2] (35 µL solution on slide, decoctions of 60 g medicine made up to 100 mL water, TTO and T4O 10% in sterilized water, observed every 2 hours, mean ± SD), the “Survival time (hours)” value is 40.50 ± 13.12 h. Further, the “Difference in in-vitro survival time of Demodex mites versus control groups (statistical comparison)” value in the assay on D.folliculorum [2] (Bonferroni comparison with negative control sterilized water (and TTO, T40 groups)) is reported as “did not show significant differences”.
